Residues, ends and D or L forms follow the SMILES beside them. No end group written: not given here. *: point of attachment. Succinimide(1-Et,3-yl) = CCN1C(=O)CC(*)C1=O
Target: T1, human CRHR2 (Homo sapiens, UniProt Q13324)
T1 construct: expressed in transfected cells
T1 sequence (Q13324 1-411): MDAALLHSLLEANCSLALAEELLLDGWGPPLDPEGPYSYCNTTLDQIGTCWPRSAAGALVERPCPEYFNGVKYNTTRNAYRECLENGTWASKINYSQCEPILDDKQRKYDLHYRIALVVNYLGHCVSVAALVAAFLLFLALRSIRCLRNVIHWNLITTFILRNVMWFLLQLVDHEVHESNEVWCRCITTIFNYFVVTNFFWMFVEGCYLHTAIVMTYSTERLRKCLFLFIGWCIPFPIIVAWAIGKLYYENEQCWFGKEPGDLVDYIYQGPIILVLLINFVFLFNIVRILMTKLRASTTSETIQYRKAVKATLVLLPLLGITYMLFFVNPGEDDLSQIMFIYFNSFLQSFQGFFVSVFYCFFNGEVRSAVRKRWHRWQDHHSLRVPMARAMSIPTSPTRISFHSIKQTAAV
Test: cAMP assay in h-CRHR2 transfected SK-N-MC cells
Type: cell-based
Conditions: for Log DR: Table 13, h-SCP control pA50 minus test compound pA50 within same assay batch
Procedure, shortened: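 Intracellular cAMP was read by competition with [125I]-cAMP for an anti-cAMP antibody after HCl lysis of human CRHR2-transfected SK-N-MC cells. Cells had been exposed to peptide, 1 pM to 10 μM, for 60 min at 37 °C in IBMX (10 μM) buffer. A50 and pA50 came from Hill fits; Log DR was computed against h-SCP within each batch.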

Row | Compound | Log DR | further results
1 | TKFTLSLDVPTNIMNLLFNIAKAKNLRC(-IA-PEG MW20000)QA AANAH LMAQI-NH2 (TKFTLSLDVPTNIMNLLFNIAKAKNLRC(IA‑PEG 20 kDa)QAAANAHLMAQI-NH2) [SEQ ID NO: 102] | – | pA50 (Table 14): 8.15; αmax (Table 14, % of the maximum response obtained to h-SCP): 111.1%; nH (Table 14, Hill slope): 1.05; pA50 approximate value (in the presence of 100 nM anti-sauvagine-30, maximal response constrained to 100%): ~6.89
2 | TKFTLSLDVPTNICNLLFNIAKAKNLRAQAAANAHLMAQI-NH2 [SEQ ID NO: 15, TKFTLSLDVPTNICNLLFNIAKAKNLRAQAAANAHLMAQI-NH2] | 0.90 | –
3 | TKFTLSLDVPTNCMNLLFNIAKAKNLRAQAAANAHLMAQI-NH2 [SEQ ID NO: 14, TKFTLSLDVPTNCMNLLFNIAKAKNLRAQAAANAHLMAQI-NH2] | >2 | –
4 | TKFTLSLDVPTNIMNLLFNIAKAKNLRAQAAANCHLMAQI-NH2 [SEQ ID NO: 35, TKFTLSLDVPTNIMNLLFNIAKAKNLRAQAAANCHLMAQI-NH2] | 0.70 | –

Continued, in another order:

Row | Log DR | Compound | further results
5 | 0.04 | CC[C@H](C)[C@H](NC(=O)[C@H](CCC(N)=O)NC(=O)[C@H](C)NC(=O)[C@H](CCSC)NC(=O)[C@H](CC(C)C)NC(=O)[C@H](Cc1c[nH]cn1)NC(=O)[C@H](C)NC(=O)[C@H](CC(N)=O)NC(=O)[C@H](C)NC(=O)[C@H](CSC1CC(=O)N(CC)C1=O)NC(=O)[C@H](C)NC(=O)[C@H](CCC(N)=O)NC(=O)[C@H](C)NC(=O)[C@H](CCCNC(=N)N)NC(=O)[C@H](CC(C)C)NC(=O)[C@H](CC(N)=O)NC(=O)[C@H](CCCCN)NC(=O)[C@H](C)NC(=O)[C@H](CCCCN)NC(=O)[C@H](C)NC(=O)[C@@H](NC(=O)[C@H](CC(N)=O)NC(=O)[C@H](Cc1ccccc1)NC(=O)[C@H](CC(C)C)NC(=O)[C@H](CC(C)C)NC(=O)[C@H](CC(N)=O)NC(=O)[C@H](CCSC)NC(=O)[C@@H](NC(=O)[C@H](CC(N)=O)NC(=O)[C@@H](NC(=O)[C@@H]1CCCN1C(=O)[C@@H](NC(=O)[C@H](CC(=O)O)NC(=O)[C@H](CC(C)C)NC(=O)[C@H](CO)NC(=O)[C@H](CC(C)C)NC(=O)[C@@H](NC(=O)[C@H](Cc1ccccc1)NC(=O)[C@H](CCCCN)NC(=O)[C@@H](N)[C@@H](C)O)[C@@H](C)O)C(C)C)[C@@H](C)O)[C@@H](C)CC)[C@@H](C)CC)C(N)=O (stereo partly drawn) [SEQ ID NO: 46, TKFTLSLDVPTNIMNLLFNIAKAKNLRAQAC(-NES)ANAH LMAQI-NH2] (H-TKFTLSLDVPTNIMNLLFNIAKAKNLRAQAC(Succinimide(1-Et,3-yl))ANAHLMAQI-NH2; N-terminus assumed) | –
6 | 0.55 | TKFTLSLDVPTNIMNLLFNIAKAKNLRAQAAANAHLMACI-NH2 [SEQ ID NO: 40, TKFTLSLDVPTNIMNLLFNIAKAKNLRAQAAANAHLMACI-NH2] | –
